For 15 compounds, IC50 results are on record in ChEMBL document CHEMBL1127596, “Leukotriene B4 (LTB4) receptor antagonists: a series of (hydroxyphenyl)pyrazoles” (J Med Chem, 1994).

Broadly, the IC50 is the point on the concentration scale where inhibition reaches its midpoint.

SMILES strings stand for the structures.

In the assay the target is Leukotriene B4 receptor 1 (Homo sapiens, UniProt Q15722). The assay is described as follows: Inhibition of [3H]Leukotriene B4 binding to human PMN.
Leukotriene B4 receptor 1, sequence (Q15722 whole entry): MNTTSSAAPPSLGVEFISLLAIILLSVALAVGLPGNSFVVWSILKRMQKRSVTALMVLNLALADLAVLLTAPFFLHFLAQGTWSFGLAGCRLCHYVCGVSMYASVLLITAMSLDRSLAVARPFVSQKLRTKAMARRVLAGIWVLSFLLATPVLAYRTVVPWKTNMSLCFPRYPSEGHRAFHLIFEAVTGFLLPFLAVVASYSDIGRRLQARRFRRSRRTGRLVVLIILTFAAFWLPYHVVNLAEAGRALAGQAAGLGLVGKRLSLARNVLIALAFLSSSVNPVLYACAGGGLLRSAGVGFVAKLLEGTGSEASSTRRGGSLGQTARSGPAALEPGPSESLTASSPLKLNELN
`CCc1cc(-c2cc[nH]n2)c(O)cc1OCCCCCOc1ccc(CC(=O)O)cc1` had an IC50 of 55 nM.
To `O=C(O)CCc1cccc(OCCCOc2ccc(-c3cc[nH]n3)cc2)c1` belongs above 1000 nM.
To `CCc1cc(-c2cc[nH]n2)c(O)cc1OCCCOc1ccccc1CC(=O)O` belongs 12 nM; to `CCc1cc(-c2ccn(C)n2)c(O)cc1OCCCCCC(C)(C)c1nnn[nH]1`, 9.3 nM.
The value for `CCc1cc(-c2cc[nH]n2)c(O)cc1OCCCOc1ccc(CCC(=O)O)cc1` was 87 nM.
The compound `CCCc1ccc(CCC(=O)O)cc1OCCCOc1cc(O)c(-c2cc[nH]n2)cc1CC` came in with an IC50 of 738 nM.
Compound `CCc1cc(-c2cc[nH]n2)c(O)cc1OCCCOc1cccc(CC(=O)O)c1` displayed an IC50 of 11 nM.
To `CCCc1c(OCCCOc2cc(O)c(C(=O)/C=C/N(C)C)cc2CC)ccc2c1OC(C(=O)O)CC2` (stereo not given) belongs 319 nM; to `CCc1cc(-c2ccnn2C)c(O)cc1OCCCCCC(C)(C)c1nnn[nH]1`, 107 nM.
In turn, `CCCc1c(CCC(=O)O)cccc1OCCCOc1cc(O)c(-c2cc[nH]n2)cc1CC` returned an IC50 of 834 nM. This IC50 lies about 7.8-fold higher than the previous one.
In the case of `CCc1cc(-c2cc[nH]n2)c(O)cc1OCCCOc1cccc(CCC(=O)O)c1`, the IC50 turned out to be 5.7 nM. This IC50 lies about 150-fold lower than the previous one.
For `CCCc1c(OCCCOc2cc(O)c(-c3cc[nH]n3)cc2CC)ccc2c1OC(C(=O)O)CC2` (stereo not given), the IC50 stood at 4.5 nM. The IC50 values of the last two compounds are within 1.5-fold of each other.
For `CCc1cc(-c2cc[nH]n2)c(O)cc1OCCCCCOc1ccc(C(=O)O)cc1`, the IC50 came to 82 nM.
Take `CCc1cc(-c2cc[nH]n2)c(O)cc1OCCCCCOc1ccc(CCC(=O)O)cc1`: the IC50 turned out to be 28 nM.
To `CCc1cc(-c2ccn[nH]2)c(O)cc1OCCCOc1ccc(CC(=O)O)cc1` belongs 54 nM.
